Measurements as given in US6403357B1, “Thermostable D-hydantoinase and the application thereof” (National Science Council, priority 2000, dated 2002).
Like-named read-outs stand apart in the source and are kept apart here.

How the values were obtained:
Type in all cases: biochemical, Bacillus circulans
[1] = test system: D-hydantoinase; experiment: Effects of H2O2, NaCl and NH4Cl on D-hydantoinase activity; settings: 10 min; for Effect on enzyme activity: concentration as high as 0.8 M, room temperature
Description: The vector pQE-bcidht in E. coli NovaBlue, crude extracts thereof or the purified D-hydantoinase of the present invention was incubated at 25° C. for 10 min. Afterwards, the catalase was added to the solution to remove residual H2O2, and then the enzyme activity was measured. In addition, various concentrations of NaCl and NH4Cl were added to the solution containing D-hydantoinase. The solution was incubated at room temperature for 10 min, and the enzyme activity was measured.

[2] = test system: D-hydantoinase; experiment: Effects of metal ions on D-hydantoinase activity
[3] = test system: D-hydantoinase; experiment: Substrate selection of D-hydantoinase; settings: substrate 10 mM; for Conversion to the corresponding N-carbamoyl amino acid / Specific activity: 50° C., 10 min; for Relative activity: percentage based on activity for dihydrouracil
Description: 10 mM Dihydrouracil, hydantoin, D,L-p-HPH, 5-[2-(methylthio)ethyl]hydantoin, and D,L-homophenylalanyl-hydantoin were used as substrates, respectively. The vector pQE-bcidht in E. coli NovaBlue, crude extracts thereof or the purified D-hydantoinase of the present invention was reacted with each substrate at 50° C. for 10 min. Enzyme activity was then measured.

[4] = test system: D-hydantoinase; experiment: Effects of chelator on D-hydantoinase activity; settings: chelator 10 μM, incubation for 10 hours
Description: The vector pQE-bcidht in E. coli NovaBlue, crude extracts thereof or the purified D-hydantoinase of the present invention was mixed with hydrophilic chelator, EDTA, and hydrophobic chelator, 2,6-dipicolinic acid, at 10 μM concentration, respectively. The mixture was incubated for 0-12 hours, and the enzyme activity was measured.

[5] = test system: D-hydantoinase; experiment: Reaction temperature of D-hydantoinase; settings: 500 μM Mn2+, 10 mM D,L-p-HPH, pH 8.0, 10 min
Description: The vector pQE-bcidht in E. coli NovaBlue, crude extracts thereof or the purified D-hydantoinase of the present invention (containing 500 μM Mn^2+), was added to 10 mM substrate of D,L-p-HPH (dissolved in 50 mM Tris-HCl (pH 8.0)). The mixture was incubated at various temperature (30-90° C.) for 10 min. The specific activity of the enzyme was then measured.

[6] = test system: D-hydantoinase; experiment: Thermostability of D-hydantoinase; settings: after 60 days incubation at 50° C.
Description: The vector pQE-bcidht in E. coli NovaBlue, crude extracts thereof or the purified D-hydantoinase of the present invention (47 unit/mg; containing 500 μM Mn^2+), was incubated at 50° C. in a thermostat water bath. The specific activity of the enzyme was measured at various time intervals.

[7] = test system: D-hydantoinase; experiment: Reaction pH of D-hydantoinase; settings: 10 mM D,L-p-HPH, 50° C., 10 min
Description: The substrate D,L-p-HPH was dissolved in various pH buffers at the final concentration of 10 mM. The vector pQE-bcidht in E. coli NovaBlue, crude extracts thereof or the purified D-hydantoinase of the present invention, were added to each buffer containing substrate, and incubated at 50° C. for 10 min. The specific activity of the enzyme was then measured.

[8] = test system: D-hydantoinase; experiment: Conditions of converting D,L-p-HPH by D-hydantoinase; settings: enzyme pre-mixed with Mn2+ and incubated in an ice solution for 4 days
Description: The reaction pH of D-hydantoinase is between 5 and 10. […] The substrate solubility and enzyme activity can be elevated by grinding D,L-p-HPH to powder form, dissolving the powdered substrate in 50 mM Tris-HCl (pH 8.0), followed by stirring the solution at room temperature for 2 hours. In addition, A suitable amount of DMSO can also enhance the solubility of substrate D,L-p-HPH, and elevate the conversion efficiency from D,L-p-HPH to D-p-HPG by the D-hydantoinase of the present invention.

[9] = ion 500 μM, 15 min at room temperature, 10 mM D,L-p-HPH in 50 mM Tris-HCl pH 8.0
[10] = ion 500 μM, percentage based on activity without adding ions

Question: How did the “Effect on enzyme activity” value [1] turn out when `[Cl-].[Na+]` [NaCl] was run?
Answer: not affected

Question: `[Cl][Cu][Cl]` [CuCl2] was tested. Which “Inhibition of D-hydantoinase activity” value ([2]; ion 500 μM) did it give?
Answer: 22%

Question: And the Specific activity [2, 9]?
Answer: 2.26 unit/mg

Question: What about the Relative activity [2, 10] of the same molecule?
Answer: 78%

Question: Which results are given for `[Ca+2].[Cl-].[Cl-]` [CaCl2]?
Answer: Specific activity [2, 9]: 2.53 unit/mg; Relative activity [2, 10]: 88%

Question: What does the source list for `O=C1NC(=O)C(c2ccc(O)cc2)N1` (racemic) [D,L-p-Hydroxyphenylhydantoin, D,L-p-hydroxyphenylhydantoin]?
Answer: Conversion to the corresponding N-carbamoyl amino acid [3]: capable of converting; Specific activity [3]: 47.43 unit/mg; Relative activity [3]: 87%

Question: What does the source list for `CSCCC1NC(=O)NC1=O` (stereo not shown) [5-[2-(Methylthio)ethyl]-hydantoin, 5-[2-(methylthio)ethyl]hydantoin]?
Answer: Conversion to the corresponding N-carbamoyl amino acid [3]: capable of converting; Specific activity [3]: 21.48 unit/mg; Relative activity [3]: 40%

Question: With `O=C1CCNC(=O)N1` [Dihydrouracil] as the molecule, how does the Specific activity [3] read?
Answer: 54.29 unit/mg

Question: What about the Specific activity ([3]; listed as dihydrouracil) of the same molecule?
Answer: 54 unit/mg

Question: And the Relative activity [3]?
Answer: 100%

Question: What does the source list for `O=S(=O)([O-])[O-].[Ni+2]` [NiSO4]?
Answer: Increase of enzyme activity, times original activity ([2]; 100 μM Ni2+): 1.3 times; Effect on enzyme activity ([2]; divalent metal ion added): enhance the enzyme activity; Specific activity [2, 9]: 4.00 unit/mg; Relative activity [2, 10]: 139%

Question: Which results are given for `O=C1CNC(=O)N1` [Hydantoin]?
Answer: Conversion to the corresponding N-carbamoyl amino acid [3]: capable of converting; Specific activity [3]: 41.43 unit/mg; Relative activity [3]: 76%

Question: Which Specific activity [2, 9] does the source give for `O=S(=O)([O-])[O-].[Mg+2]` [MgSO4] here?
Answer: 2.69 unit/mg

Question: What about the Relative activity [2, 10] of the same molecule?
Answer: 94%

Question: `O=S(=O)([O-])[O-].[Zn+2]` [ZnSO4] was tested. Which “Inhibition of D-hydantoinase activity” value ([2]; ion 500 μM) did it give?
Answer: 50%

Question: What about the Specific activity [2, 9] of the same molecule?
Answer: 1.44 unit/mg

Question: And the Relative activity [2, 10]?
Answer: 50%

Question: For `O=C1NC(=O)C(CCc2ccccc2)N1` (racemic) [D,L-Homophenylalanyl-hydantoin, D,L-homophenylalanyl-hydantoin], which “Conversion to the corresponding N-carbamoyl amino acid” value [3] is on record?
Answer: capable of converting

Question: And the Specific activity [3]?
Answer: 45.64 unit/mg

Question: And the Relative activity [3]?
Answer: 84%

Question: Which “Effect on enzyme activity” value [1] does the source give for `Cl.N` [NH4Cl] here?
Answer: not affected

Question: For `O=S(=O)([O-])[O-].[Fe+2]` [FeSO2], which Specific activity [2, 9] is on record?
Answer: 2.52 unit/mg

Question: What about the Relative activity [2, 10] of the same molecule?
Answer: 87.5%

Question: With `[Cl][Mn][Cl]` [MnCl2] as the molecule, how does the “Increase of enzyme activity, times original activity” value ([2]; 500 μM Mn2+) read?
Answer: 7.7 times

Question: What about the “Effect on enzyme activity” value ([2]; divalent metal ion added) of the same molecule?
Answer: enhance the enzyme activity

Question: What about the Specific activity [2, 9] of the same molecule?
Answer: 22.25 unit/mg

Question: And the Relative activity [2, 10]?
Answer: 773%

Question: `[Cl-].[Cl-].[Co+2]` [CoCl2] was tested. Which “Effect on enzyme activity” value [2] did it give?
Answer: enhance the enzyme activity

Question: What about the “Increase of enzyme activity, times original activity” value [2] of the same molecule?
Answer: 4.5 times

Question: What about the Relative activity [2] of the same molecule?
Answer: 252%

Question: And the Specific activity ([2]; pH 8)?
Answer: 7.25 unit/mg

Question: Which Specific activity [2, 9] does the source give for `[Cl][Fe]([Cl])[Cl]` [FeCl3] here?
Answer: 2.52 unit/mg

Question: What about the Relative activity [2, 10] of the same molecule?
Answer: 87.5%

Question: How did the Retained enzyme activity ([1]; 0.8 M H2O2, 25° C.) turn out when `OO` [H2O2] was run?
Answer: 85%

Question: What does the source list for `[Cl-].[Cl-].[Mg+2]` [MgCl2]?
Answer: Specific activity [2, 9]: 2.62 unit/mg; Relative activity [2, 10]: 91%

Question: Which Retained enzyme activity [4] does the source give for `O=C(O)CN(CCN(CC(=O)O)CC(=O)O)CC(=O)O` [EDTA] here?
Answer: 70%

Question: Which Retained enzyme activity [4] does the source give for `O=C(O)c1cccc(C(=O)O)n1` [2,6-dipicolinic acid] here?
Answer: 40%

B1: D-hydantoinase: thermostable D-hydantoinase from Bacillus circulans, amino acid sequence SEQ ID NO:1, 461 amino acids, expressed in E. coli (protein)
chain: MKKWIRNGTVVTASDTYQADVLIDGEKVVAIGSDLQATDAEVIDATGYYLLPGGIDPHTHLDMPFGGTVTSDNFFTGTKAAAFGGTTSIVDFCLTSKGESLHSAIATWHEKARGKAVIDYGFHLMVSDANDHVLEELESVVNNEGITSLKVFMAYKNVLMADDETLFKTLIRAKELGALVQVHAENGDVLDYLTKQALAEGNTDPIYHAYTRPPEAEGEATGRAIALTALADAQLYVVHVSCADAVRRIAEAREKGWNVYGETCPQYLVLDITALEKPDFEGAKYVWSPPLREKWNQDVLWSALKNGILQTVGSDHCPFNFSGQKELGRRDFTKIPNGGPIIEDRMTILFSEGVRKGKISLNQFVDITSTKVAKLFGMFPQKGTIAVGSDADIVLFDPTVQRTISVETHHMNVDYNPFEGMQVHGDVISVLSRGAFVVRNKQFVGHAGAGRYVKRSTFARP
Question: With B1 as the molecule, how does the Specific activity ([5]; 30° C.) read?
Answer: 9.0 unit/mg

Question: What about the Highest specific activity ([5]; 60° C.) of the same molecule?
Answer: 28.32 unit/mg

Question: And the Specific activity ([5]; 90° C.)?
Answer: 4.26 unit/mg

Question: And the “Activity after long incubation” value [6]?
Answer: retains activity

Question: What about the “Enzyme activity” value ([7]; pH 4.0) of the same molecule?
Answer: loses its entire activity

Question: And the Highest specific activity ([7]; pH 8.5)?
Answer: 3.36 unit/mg

Question: And the “Maximum specific activity for catalysis of D,L-p-HPH” value [8]?
Answer: 47 unit/mg
